According to ChEMBL document CHEMBL1135444, “Elucidating the inhibiting mode of AHPBA derivatives against HIV-1 protease and building predictive 3D-QSAR models” (J Med Chem, 2002):
pIC50: −log10 of the molar value.

target: Human immunodeficiency virus type 1 protease (Human immunodeficiency virus 1, UniProt Q72874); assay: Inhibitory activity against HIV-1 protease

Row | Structure (SMILES) | pIC50
1 | Cc1cc(O)c(C)c(C(=O)N[C@@H](Cc2cccc(C(F)(F)F)c2)[C@H](O)C(=O)N2C[C@@H](Cl)C[C@H]2C(=O)NC(C)(C)C)c1 | 8.72
2 | CC(C)(C)NC(=O)[C@@H]1C[C@H](Cl)CN1C(=O)[C@@H](O)[C@H](Cc1ccccc1)NC(=O)c1ccccc1Cl | 7.96
3 | Cc1cccc(C)c1C(=O)N[C@@H](Cc1ccccc1)[C@H](O)C(=O)N1C[C@@H](Cl)C[C@H]1C(=O)NC(C)(C)C | 8.44
4 | COc1cccc(C(=O)N[C@@H](Cc2ccccc2)[C@H](O)C(=O)N2C[C@@H](Cl)C[C@H]2C(=O)NC(C)(C)C)c1O | 6.00
5 | Cc1c(O)cc(F)cc1C(=O)N[C@@H](Cc1ccccc1)[C@H](O)C(=O)N1C[C@@H](Cl)C[C@H]1C(=O)NC(C)(C)C | 8.77
6 | Cc1cc(O)c(C)c(C(=O)N[C@@H](Cc2ccc3ccccc3c2)[C@H](O)C(=O)N2C[C@@H](Cl)C[C@H]2C(=O)NC(C)(C)C)c1 | 9.10
7 | Cc1c(O)cc(F)cc1C(=O)N[C@@H](Cc1cccc(C(F)(F)F)c1)[C@H](O)C(=O)N1C[C@@H](Cl)C[C@H]1C(=O)NC(C)(C)C | 8.68
8 | CC(C)(C)NC(=O)[C@@H]1C[C@H](Cl)CN1C(=O)[C@@H](O)[C@H](Cc1ccccc1)NC(=O)c1ccccc1O | 6.00
9 | Cc1ccc(C(=O)N[C@@H](Cc2ccccc2)[C@H](O)C(=O)N2C[C@@H](Cl)C[C@H]2C(=O)NC(C)(C)C)c(C)c1O | 8.09
10 | Cc1ccccc1C[C@H](NC(=O)c1ccc(C)c(O)c1C)[C@H](O)C(=O)N1C[C@@H](Cl)C[C@H]1C(=O)NC(C)(C)C | 7.30
11 | Cc1cc(O)c(C)c(C(=O)N[C@@H](Cc2ccccc2)[C@H](O)C(=O)N2C[C@@H](Cl)C[C@H]2C(=O)NC(C)(C)C)c1 | 8.89
12 | Cc1cccc(C[C@H](NC(=O)c2c(C)ccc(O)c2C)[C@H](O)C(=O)N2C[C@@H](Cl)C[C@H]2C(=O)NC(C)(C)C)c1 | 8.47
13 | Cc1ccc(C[C@H](NC(=O)c2c(C)ccc(O)c2C)[C@H](O)C(=O)N2C[C@@H](Cl)C[C@H]2C(=O)NC(C)(C)C)cc1 | 8.44
14 | Cc1ccc(C[C@H](NC(=O)c2ccc(C)c(O)c2C)[C@H](O)C(=O)N2C[C@@H](Cl)C[C@H]2C(=O)NC(C)(C)C)cc1 | 8.07
15 | Cc1ccc(C(=O)N[C@@H](Cc2ccc(C(F)(F)F)cc2)[C@H](O)C(=O)N2C[C@@H](Cl)C[C@H]2C(=O)NC(C)(C)C)c(C)c1O | 8.20
16 | CC(C)(C)NC(=O)[C@@H]1C[C@H](Cl)CN1C(=O)[C@@H](O)[C@H](Cc1ccccc1)NC(=O)c1cccc(O)c1 | 8.05
17 | Cc1ccc(C(=O)N[C@@H](Cc2ccc3ccccc3c2)[C@H](O)C(=O)N2C[C@@H](Cl)C[C@H]2C(=O)NC(C)(C)C)c(C)c1O | 8.49
18 | CC(C)(C)NC(=O)[C@@H]1C[C@H](Cl)CN1C(=O)[C@@H](O)[C@H](Cc1ccccc1)NC(=O)c1ccc(O)cc1 | 7.48

Row | Structure (SMILES) | pIC50
19 | Cc1ccc(O)c(C)c1C(=O)N[C@@H](Cc1ccc(C(F)(F)F)cc1)[C@H](O)C(=O)N1C[C@@H](Cl)C[C@H]1C(=O)NC(C)(C)C | 8.41
20 | Cc1cc(O)c(C)c(C(=O)N[C@@H](Cc2cc(F)cc(F)c2)[C@H](O)C(=O)N2C[C@@H](Cl)C[C@H]2C(=O)NC(C)(C)C)c1 | 8.92
21 | CC(C)(C)NC(=O)[C@@H]1C[C@H](Cl)CN1C(=O)[C@@H](O)[C@H](Cc1ccccc1)NC(=O)c1ccccc1I | 7.85
22 | Cc1c(O)cccc1C(=O)N[C@@H](Cc1ccccc1)[C@H](O)C(=O)N1C[C@@H](Cl)C[C@H]1C(=O)NC(C)(C)C | 9.10
23 | CC(C)(C)NC(=O)[C@@H]1C[C@H](Cl)CN1C(=O)[C@@H](O)[C@H](Cc1ccccc1)NC(=O)c1cccc(O)c1Br | 8.82
24 | Cc1ccc(O)c(C)c1C(=O)N[C@@H](Cc1ccc2ccccc2c1)[C@H](O)C(=O)N1C[C@@H](Cl)C[C@H]1C(=O)NC(C)(C)C | 8.55
25 | Cc1cccc(C[C@H](NC(=O)c2cc(C)cc(O)c2C)[C@H](O)C(=O)N2C[C@@H](Cl)C[C@H]2C(=O)NC(C)(C)C)c1 | 8.89
26 | CC(C)(C)NC(=O)[C@@H]1C[C@H](Cl)CN1C(=O)[C@@H](O)[C@H](Cc1ccccc1)NC(=O)c1ccccc1 | 7.59
27 | Cc1ccc(C(=O)N[C@@H](Cc2cccc(C(F)(F)F)c2)[C@H](O)C(=O)N2C[C@@H](Cl)C[C@H]2C(=O)NC(C)(C)C)c(C)c1O | 8.46
28 | Cc1c(N)cccc1C(=O)N[C@@H](Cc1ccccc1)[C@H](O)C(=O)N1C[C@@H](Cl)C[C@H]1C(=O)NC(C)(C)C | 8.27
29 | Cc1c(O)cc(F)cc1C(=O)N[C@@H](Cc1ccc2ccccc2c1)[C@H](O)C(=O)N1C[C@@H](Cl)C[C@H]1C(=O)NC(C)(C)C | 8.92
30 | Cc1ccc(O)c(C)c1C(=O)N[C@@H](Cc1cccc(C(F)(F)F)c1)[C@H](O)C(=O)N1C[C@@H](Cl)C[C@H]1C(=O)NC(C)(C)C | 8.34
31 | CC(C)(C)NC(=O)[C@@H]1C[C@H](Cl)CN1C(=O)[C@@H](O)[C@H](Cc1ccccc1)NC(=O)c1ccccc1N | 7.41
32 | Cc1cc(O)c(C)c(C(=O)N[C@@H](Cc2ccc(-c3ccccc3)cc2)[C@H](O)C(=O)N2C[C@@H](Cl)C[C@H]2C(=O)NC(C)(C)C)c1 | 8.89
33 | Cc1ccc(O)c(C)c1C(=O)N[C@@H](Cc1ccccc1)[C@H](O)C(=O)N1C[C@@H](Cl)C[C@H]1C(=O)NC(C)(C)C | 8.60
34 | Cc1cccc(C[C@H](NC(=O)c2ccc(C)c(O)c2C)[C@H](O)C(=O)N2C[C@@H](Cl)C[C@H]2C(=O)NC(C)(C)C)c1 | 8.60
35 | Cc1ccccc1C[C@H](NC(=O)c1c(C)ccc(O)c1C)[C@H](O)C(=O)N1C[C@@H](Cl)C[C@H]1C(=O)NC(C)(C)C | 7.46
36 | CC(C)(C)NC(=O)[C@@H]1C[C@H](Cl)CN1C(=O)[C@@H](O)[C@H](Cc1ccccc1)NC(=O)c1ccccc1Br | 7.92
